We go through eleven molecules from US10597362B2, “3-aminoalkylated indole derivative, method for the preparation thereof, and pharmaceutical composition comprising the same” (Seoul National University Hospital, priority 2016, dated 2020).

One may read the IC50 as the concentration that inhibits the measured activity by half. What is called inhibition is the share of the control response that was lost under treatment. A lower inhibition goes with a response near the control.

The assay deals with hResistin. The experiment in a line: Ability to inhibit TNF-α secretion by hResistin (THP-1, ELISA). The following applies: THP-1 human monocyte cell line; for IC50: human recombinant Resistin, ELISA OD450 nm, 1 hour treatment. It is filed as cell-based. As to the method: Using THP-1 (human monocyte) cell line and ELISA system, the abilities to inhibit TNF-α secretion by hResistin (IC50) were evaluated for the compounds prepared in the above examples. The compounds target hResistin, and the abilities of the compounds to inhibit TNF-α secretion by human recombinant Resistin in human monocyte (THP-1) were evaluated. The abilities to inhibit TNF-α secretion were assessed by ELISA quantifying the amount of antibody with the enzyme as a marker using an antigen-antibody reaction.
Specifically, the cultured cells were spun down at 1,500 rpm for 2 minutes, the supernatant was removed and then the cells were re-suspended in 10 mL of complete RPMI-1640 medium. After counting the number of cells using Luna™ Automated Cell Counter, cells were plated into 96-well assay plates at 50 μL per well. The cells cultured for 24 hours were treated with the test substances in accordance with the concentration for 1 hour, and then the supernatant was collected and subjected to ELISA assay. In the ELISA assay, the absorbance at 450 nm (OD450 nm) was measured using Flexstation 3. The ability of each test substance to inhibit TNF-α secretion (IC50) and its inhibition at a concentration of 5 uM are shown in Table 1 below.

Turning to `CN1CCN(C(c2cccc(F)c2)c2c(-c3ccccc3)[nH]c3ccccc23)CC1` (stereo not drawn) [Example 7, 3-((3-fluorophenyl)(4-methylpiperazin-1-yl)methyl)-2-phenyl-1H-indole], the IC50 amounted to 2000 nM.

With `CCN1CCN(C(c2ccc(F)cc2)c2c(-c3ccccc3)[nH]c3ccccc23)CC1` (stereo not drawn) [Example 18, 3-((4-ethylpiperazin-1-yl)(4-fluorophenyl)methyl)-2-phenyl-1H-indole], the IC50 is 1700 nM.

In the case of `CN1CCN(C(c2ccc(F)cc2)c2c(-c3ccccc3)[nH]c3ccccc23)CC1` (stereo not drawn) [Example 10, 3-((4-fluorophenyl)(4-methylpiperazin-1-yl)methyl)-2-phenyl-1H-indole], the IC50 stood at 1700 nM.

Regarding `CN1CCN(C(c2ccc(C(F)(F)F)cc2)c2c(-c3ccccc3)[nH]c3ccccc23)CC1` (stereo not drawn) [Example 8, 3-((4-methylpiperazin-1-yl)(4-(trifluoromethyl)phenyl)methyl)-2-phenyl-1H-indole], the IC50 was 1000 nM.

Turning to `CN1CCN(C(c2ccc(F)cc2)c2c(-c3ccc(Cl)cc3)[nH]c3ccccc23)CC1` (stereo not drawn) [Example 15, 2-(4-chlorophenyl)-3-((4-fluorophenyl)(4-methylpiperazin-1-yl)methyl)-1H-indole], the IC50 is 1500 nM.

As to `CN1CCN(C(c2cccc(F)c2)c2c(-c3ccc(Cl)cc3)[nH]c3ccccc23)CC1` (stereo not drawn) [Example 14, 2-(4-chlorophenyl)-3-((3-fluorophenyl)(4-methylpiperazin-1-yl)methyl)-1H-indole], the IC50 is 3200 nM.

Consider `CN1CCN(C(c2ccccc2)c2c(-c3ccccc3)[nH]c3ccccc23)CC1` (stereo not drawn) [Example 6, 3-((4-methylpiperazin-1-yl)(phenyl)methyl)-2-phenyl-1H-indole], for which the IC50 is 2800 nM.

Consider `CCN1CCN(C(c2ccc(C(F)(F)F)cc2)c2c(-c3ccccc3)[nH]c3ccccc23)CC1` (stereo not drawn) [Example 19, 3-((4-ethylpiperazin-1-yl)(4-(trifluoromethyl)phenyl)methyl)-2-phenyl-1H-indole], for which the IC50 came to 1700 nM.

As to `CN1CCN(C(c2ccc(Cl)cc2)c2c(-c3ccc(Cl)cc3)[nH]c3ccccc23)CC1` (stereo not drawn) [Example 12, 2-(4-chlorophenyl)-3-((4-chlorophenyl)(4-methylpiperazin-1-yl)methyl)-1H-indole], the IC50 came out at 400 nM.

For the molecule `Fc1ccc(C(c2c(-c3ccccc3)[nH]c3ccccc23)N2CCOCC2)cc1` (stereo not drawn) [Example 9, 4-((4-fluorophenyl)(2-phenyl-1H-indol-3-yl)methyl)morpholine], the IC50 was found to be 3500 nM.

For the molecule `CN1CCN(C(c2ccc(Cl)cc2)c2c(-c3ccccc3)[nH]c3ccccc23)CC1` (stereo not drawn) [Example 2, 3-((4-chlorophenyl)(4-methylpiperazin-1-yl)methyl)-2-phenyl-1H-indole], the half-inhibitory concentration (IC50) amounted to 4400 nM. This molecule also had an inhibition at 5 µM (TNF-α secretion by hResistin, concentration 5 uM) of 70.3%.
